Laboratory results: patent publication US9925274B2, “Delphinidin complex as an antiphlogistic or immunosuppressive active ingredient” (priority 2012, dated 2018)
Entries after “also recorded” stand apart in the source; their conditions may differ. Read-outs that look alike come from different tables or passages of the source.

Columns and labels:
NFKB = test: Concentration of NFKB in the nucleus of monocytes after stimulation with LPS and/or delphinidin (immunofluorescence nuclear staining; Examples 6-8); format: cell-based; set-up: Inhibitory effect on the cell immune response compared to hydrocortisone: dose or concentration left out as unconfirmed
Description: For healthy test subjects, the concentration of NFKB in the nucleus of monocytes after stimulation with LPS and/or delphinidin was assayed by means of immunofluorescence nuclear staining for NFKB and expressed in relation to nonstimulated cells. NFKB is activated by various stimuli, especially inflammatory and stress-associated stimuli.
The following procedure was carried out and shown in FIG. 1 from left to right, with the stimulation/incubation of the cells (1 ml in each case of RPMI-1640 comprising 1 million cells in the exponential growth phase) taking place at 37° C. in a well of a 24-well polystyrene cell culture dish and the specified concentrations being final concentrations: • “1.5 h 10 μg LPS”—Stimulation of the cells for 1.5 h with 10 μg/ml LPS (control) • “24 h prestim. 5 μM Del-Cl; 1.5 h 10 μg LPS”—24 h prestimulation of the cells with 5 μM delphinidin chloride (dissolved in RPMI-1640 cell medium) and then 1.5 h stimulation with 10 μg/ml LPS • “1.5 h 5 μM Del-Cl+10 μg LPS”—1.5 h simulation of the cells with 10 μg/ml LPS and 5 μM delphinidin chloride (dissolved in RPMI-1640 cell medium) • “24 h prestim. 5 μM Del-Cl; 1.5 h 5 μM Del-Cl”—24 h prestimulation of the cells with 5 μM delphinidin chloride (dissolved in RPMI-1640 cell medium) and then renewed stimulation with 5 μM delphinidin chloride (dissolved in RPMI-1640 cell medium) for 1.5 h • “24 h prestim. 5 μM Del-Cl; 1.5 h 5 μM Del-Cl+10 μg LPS”—24 h prestimulation of the cells with 5 μM delphinidin chloride (dissolved in RPMI-1640 cell medium) and then renewed stimulation with 5 μM delphinidin chloride (dissolved in RPMI-1640 cell medium) and 10 μg/ml LPS for 1.5 h
A procedure analogous to the methodology in example 5 was carried out and shown in FIGS. 2a and 2b from left to right, with the stimulation/incubation of the cells (1 ml in each case of RPMI-1640 comprising 1 million cells in the exponential growth phase) taking place at 37° C. in a well of a 24-well polystyrene cell culture dish and the specified concentrations being final concentrations:
FIG. 2a: • “1.5 h 10 μg LPS”—Stimulation of the cells for 1.5 h with 10 μg/ml LPS (control) • “1.5 h 5 μM Del-Cl+10 μg LPS”—1.5 h simulation of the cells with 10 μg/ml LPS and 5 μM delphinidin chloride (dissolved in RPMI-1640 cell medium) • “1.5 h hydrocortisone+10 μg LPS”—Stimulation of the cells for 10^−5 M hydrocortisone and 10 μg/ml LPS for 1.5 h
FIG. 2b: • “1.5 h 10 μg LPS”—Stimulation of the cells for 1.5 h with 10 μg/ml LPS (control) • “1.5 h 10 μM Del-Cl+10 μg LPS”—1.5 h simulation of the cells with 10 μg/ml LPS and 10 μM delphinidin chloride (dissolved in RPMI-1640 cell medium)
A procedure analogous to the methodology in examples 5 and 6 was carried out and shown in FIG. 3 from left to right, with the stimulation/incubation of the cells (1 ml in each case of RPMI-1640 comprising 1 million cells in the exponential growth phase) taking place at 37° C. in a well of a 24-well polystyrene cell culture dish and the specified concentrations being final concentrations: • “1.5 h 2.5 μM Del-Cl”—1.5 h stimulation of the cells with 2.5 μM delphinidin chloride (dissolved in RPMI-1640 cell medium) • “1.5 h 5 μM Del-Cl”—1.5 h simulation of the cells with 5 μM delphinidin chloride (dissolved in RPMI-1640 cell medium) • “1.5 h 10 μM Del-Cl”—1.5 h stimulation of the cells with 10 μM delphinidin chloride (dissolved in RPMI-1640 cell medium) • “1.5 h hydrocortisone”—1.5 h stimulation of the cells with […] hydrocortisone

[1] = Stability experiments in aqueous solution: 0.9% NaCl, 37° C., delphinidin content by HPLC (Example 5); format: physicochemical; conditions: dark, start 1.584 mg/ml (complex) or 0.0216 mg/ml (uncomplexed)
Description: The content of delphinidin chloride in the delphinidin-containing solutions was determined by using a reverse-phase HPLC method similar to the one already described above. This used the following reagents: • Purified water • Methanol for chromatography • Formic acid, p. a. • 1 M Hydrochloric acid as volumetric solution.
The solutions were produced at room temperature and then stored in closed vials in the dark at 37° C.
After 1, 2, 3 and 4 h, the delphinidin content was determined. The table below specifies the ascertained content as a percentage of the above-stated starting concentration.

[2] = test system: tight junction protein claudin-5 mRNA expression in cEND cells; test: claudin-5 mRNA expression in cEND cells with or without TNFα (Example 10); format: cell-based, murine
Description: The surrogate marker used for the tightness of the barrier was the expression of the tight junction protein claudin-5 (Forster C. Tight junctions and the modulation of barrier function in disease. Histochem Cell Biol. 2008; 130: 55-70) and the procedure carried out was analogous to example 8.

[3] = test system: Cc17 [chemokine (C—C motif) ligand 7] mRNA expression in cEND cells; conditions: for Effect on the TNFα-induced rise in Cc17 mRNA expression: TNFα 24 h
[4] = Solubility of delphinidin chloride in aqueous cyclodextrin solutions (Example 1); conditions: neutral aqueous solution with 10% by weight cyclodextrin (β-CD 2%) or pure water; excess delphinidin chloride; stirred in the dark at 30° C. for 20 h; 0.22 μm filtration
[5] = conclusion from the measured results

C[C@]12CCC(=O)C=C1CC[C@@H]1[C@@H]2[C@@H](O)C[C@@]2(C)[C@H]1CC[C@]2(O)C(=O)CO [hydrocortisone, reference compound]
Inhibition of the LPS-mediated immune response (NFKB in the nucleus) (NFKB; 1.5 h 10^−5 M hydrocortisone + 10 μg/ml LPS, FIG. 2a): inhibited

Oc1cc(O)c2cc(O)c(-c3cc(O)c(O)c(O)c3)[o+]c2c1.[Cl-] [delphinidin, Delphinidin chloride]
Delphinidin content as a percentage of the starting concentration ([1]; 0 h): 100% | Delphinidin content as a percentage of the starting concentration ([1]; 1 h): 8.3% | Delphinidin content as a percentage of the starting concentration ([1]; 2 h): 6.5% | Delphinidin content as a percentage of the starting concentration ([1]; 3 h): 5.6% | Delphinidin content as a percentage of the starting concentration ([1]; 4 h): 5.1% | Inhibition of the LPS-mediated immune response (NFKB in the nucleus) (NFKB; 1.5 h 5 μM Del-Cl + 10 μg/ml LPS simultaneously, FIG. 1, FIG. 2a): inhibition of the immune response; also recorded: inhibited at least just as well as by means of addition of hydrocortisone | Inhibition of the LPS-mediated immune response (NFKB in the nucleus) (NFKB; 1.5 h 10 μM Del-Cl + 10 μg/ml LPS, repeat experiment FIG. 2b): significantly reduced | Inhibition of the cell immune response with varying concentration (NFKB in the nucleus) (NFKB; 1.5 h 2.5, 5 and 10 μM Del-Cl, without LPS, FIG. 3): increase in the delphinidin-mediated inhibition of the cell immune response (dose effect) | Inhibition of the LPS-mediated immune response (NFKB in the nucleus) (NFKB; 24 h prestimulation 5 μM Del-Cl, then 1.5 h 5 μM Del-Cl + 10 μg/ml LPS, FIG. 1): further intensified (additive effect) | Inhibition of the LPS-mediated immune response (NFKB in the nucleus) (NFKB; 24 h prestimulation with 5 μM Del-Cl, then 1.5 h 10 μg/ml LPS, FIG. 1): (weakly) inhibits | Inhibitory effect on the cell immune response compared to hydrocortisone (NFKB; appropriately high delphinidin concentration, 1.5 h, comparison hydrocortisone, FIG. 3): comparable to that of hydrocortisone | Effect on the TNFα-mediated decrease in claudin-5 mRNA expression ([2]; then delphinidin 0.1 μM, FIG. 5): counteracted this TNFα-mediated decrease | Effect on the TNFα-mediated decrease in claudin-5 mRNA expression ([2]; then delphinidin 1 μM, FIG. 5): counteracted this TNFα-mediated decrease | Barrier of the blood-brain barrier after inflammation [2, 5]: strongly increases | Effect on claudin-5 mRNA expression without prior TNFα exposure ([2]; delphinidin alone in the cell culture medium, FIG. 5): increase in claudin-5 mRNA expression | Effect on the TNFα-induced rise in Cc17 mRNA expression ([3]; then delphinidin 0.1 μM for a further 24 h, FIG. 4): distinct suppression or inhibition | Effect on the TNFα-induced rise in Cc17 mRNA expression ([3]; then delphinidin 1 μM for a further 24 h, FIG. 4): distinct suppression or inhibition | Antiphlogistic effect on the blood-brain barrier after inflammation relative to dexamethasone [3, 5]: at least equivalent | Effect on Cc17 expression without prior TNFα exposure ([3]; delphinidin alone in the cell culture medium, FIG. 4): suppression of Cc17 expression | Attainable solubility, Delphinidin chloride [4]: 70 µg/mL
